In patent publication US20160199434A1, “COMPOSITIONS AND METHODS FOR MODULATING DNA METHYLATION” (OHIO STATE INNOVATION FOUNDATION, priority 2013, published 2016):
Values joined by “and” are separate entries in the source; they are usually repeats but may differ in a detail not shown here. Identical values can stand only once. “Also recorded” adds a separate entry of the source.

Columns and labels:
[1] = test system: DNMT-3b; assay: DNMT-3b mRNA level by RT-PCR in PyMT tumor cells; assay type: cell-based, mouse; conditions: PyMT tumor cells in culture
Description: (§1) Because DSP is regulated by ER/PR expression, and because late-stage PyMT tumors lose ER/PR-positivity and heavily metastasize to the lymph nodes and lungs (Lin et al., 2003), the effects of AKB-6899 on more global events that regulate gene expression was evaluated. PyMT tumor cells in culture were treated with DMSO or AKB-6899. Methylation-specific PCR for CpG islands in the desmoplakin promoter were performed. […] Trypan Blue confirmed no cell death in AKB-6899 treated cells when compared to control cells. The experiment was repeated and RNA was isolated from the cells. RT-PCR was performed and the regulation of DNA methyltransferases (DNMTs) was evaluated. […] (FIG. 1A). The decrease in mRNA levels of DNMT-1 and DNMT-3a increased the mRNA level of DSP (FIG. 4A) and increased desmoplakin protein expression (FIG. 5A).

[2] = test system: desmoplakin protein; assay: Desmoplakin protein expression in cultured PyMT tumor cells; assay type: cell-based, mouse; conditions: 10 μM, 24 hours (FIG. 5A)
Description: FIGS. 5A-5B show desmoplakin protein expression following AKB-6899 treatment. In FIG. 5A, cultured PyMT tumor cells were treated for 24 hours with DMSO or AKB-6899 (10 μM). AKB-6899 increased desmoplakin protein expression.
The gene expression signatures from the tumors of PyMT breast tumor-bearing mice that were treated with either vehicle or AKB-6899 were evaluated. […] Methylation-specific PCR on the desmoplakin promoter was performed. The level of hypomethylation was near complete.

[3] = test system: BEAS-2B cells; assay: XTT cell survival assay, normal lung epithelial cells; assay type: cell-based; conditions: BEAS-2B normal lung epithelial cells, even at the highest dose (FIG. 13A)
From the text: FIGS. 13A-13B show XTT cell survival assays for normal lung epithelial cells (BEAS-2B) and lung cancer cells (H1703 squamous cell carcinoma and A549 adenocarcinoma) in response to increasing doses of AKB-6899.

[4] = test system: PyMT tumor cells; assay: Trypan Blue cell death check in PyMT tumor cells; assay type: cell-based; conditions: compared to control cells
Description: as §1

[5] = test system: DNMT-3b; assay: DNMT-3b mRNA expression in lungs of normal mice after systemic administration; assay type: in vivo, mouse; conditions: i.p. 17.5 mg/kg three times per week for three weeks, vs DMSO
Description: FIGS. 14A-14C show the effects of systemic administration of AKB-6899. Mice were treated three times per week for three weeks with either i.p. AKB-6899 or i.p. DMSO. The lungs were removed and assayed to determine DNMT mRNA expression, percent CpG methylation, and fold change in mRNA. […] The data was standardized to 1.0 by the DMSO levels of the respective gene expression, (n=4 lungs per condition).

[6] = test system: MDA-MB-231 human breast cancer cells; assay: RNAseq of microRNAs and snoRNAs in MDA-MB-231 cancer cells; assay type: cell-based; conditions: MDA-MB-231 cells, compared to DMSO-treated cells
Description: The expression of various microRNAs and snoRNAs was evaluated following administration of AKB-6899 to MDA-MB-231 human breast cancer cells. In these cancer cells, AKB-6899 increased expression of several microRNAs, some of which target methylation regulators such as the DNMTs. AKB-6899 also regulated about 20 snoRNAs, some of which are known to guide methylation. Finally, the analysis identified over sixty (60) RNA transcripts in the AKB-6899 treated cancer cells, which transcriptions are yet to annotated. The AKB-6899 treated breast cancer cells were compared to DMSO-treated cancer cells.

[7] = test system: desmoplakin (DSP) mRNA; assay: Desmoplakin mRNA expression in PyMT tumors of tumor-bearing mice; assay type: in vivo, mouse
From the text: FIGS. 4A-4B show desmoplakin mRNA expression in vitro and in vivo.
Desmoplakin (DSP) is the major protein component of the desmosome located in the inner membrane of epithelial cells where it binds desmosomal cadherins to maintain cell-to-cell adhesion. DSP is regulated by ER/PR expression (Maynadier et al. 2012; Ahmed et al., 1995; Pang et al., 2004). Clinically, expression of DSP is higher in normal mammary epithelium. Loss of DSP correlates with less differentiated breast tumors and increased lymph node involvement. […] Functional desmoplakin that is incorporated into the desmosome is not phosphorylated at serine 165/166. Phosphorylation at ser165/166 by protein kinase C (PKC) causes desmoplakin to disassemble from the desmosome. The loss of desmosome function and decreased adherence junctions are markers that can inform tumor staging, prognosis, and treatment planning as this transition eliminates therapeutic effectiveness and increases the likelihood of poor clinical outcome (Dusek et al., 2011). Further, loss of DSP is a marker in the Epithelial-to-Mesenchymal Transition (EMT) process as it binds to adherence proteins that also translocate to the nucleus and activate the Wnt/β-catenin pathway (Yang et al., 2012).
The gene expression signatures from the tumors of PyMT breast tumor-bearing mice that were treated with either vehicle or AKB-6899 were evaluated. […]

O=C(O)CNC(=O)c1ncc(-c2cccc(F)c2)cc1O [AKB-6899, {[5-(3-Fluorophenyl)-3-hydroxypyridine-2-carbonyl]amino}acetic acid]
DNMT-3b mRNA level [1]: no difference
desmoplakin protein expression [2]: upregulation; also recorded: increased
cell survival [3]: no significant decrease
cell death by Trypan Blue [4]: no cell death
DNMT-3b expression in lungs [5]: inhibited
expression of microRNAs [6]: increased
increase in DSP mRNA expression ([7]; PyMT breast tumor-bearing mice, 17.5 mg/kg, vs DMSO/vehicle animals, 17.5 mg/kg): ~118 fold and 118.5 fold
desmoplakin expression from PyMT tumors (in words) ([7]; in vivo, compared to vehicle (FIG. 4B)): significantly increased
